Measured values reported in patent US6344473B1, “Imidazoles useful as nitric oxide synthase inhibitors” (G.D. Searle & Co., priority 2000, dated 2002).
Structures can show the parent of a compound that is named as a salt.

What was measured:
hiNOS = hiNOS (Homo sapiens, UniProt P35228); test: Citrulline assay for nitric oxide synthase, human in vitro enzyme data, hiNOS; assay type: biochemical; conditions: human inducible NOS
hncNOS = hncNOS (Homo sapiens, UniProt P29475); test: Citrulline assay for nitric oxide synthase, human in vitro enzyme data, hncNOS; assay type: biochemical; conditions: human neuronal constitutive NOS
hecNOS = hecNOS (Homo sapiens, UniProt P29474); test: Citrulline assay for nitric oxide synthase, human in vitro enzyme data, hecNOS; assay type: biochemical; conditions: human endothelial constitutive NOS
[1] = test system: plasma nitrites induced by endotoxin (LPS); test: Low Dose LPS in vivo low-endotoxin assay (plasma nitrites); conditions: mouse

Row | Structure (SMILES) | IC50 (hiNOS) [µM] | IC50 (hncNOS) [µM] | IC50 (hecNOS) [µM] | Low Dose LPS in vivo Effective Dose (p.o.), inhibition ([1]; 3 mg/kg/day p.o.) [% inh.] | Low Dose LPS in vivo Effective Dose (p.o.), inhibition ([1]; 10 mg/kg/day p.o.) [% inh.]
1 | CCOC(=O)[C@@H](N)CCCCn1c(C)noc1=O [Example 3, ethyl αS-amino-4,5-dihydro-3-methyl-5-oxo-1,2,4-oxadiazole-4-hexanoate, monohydrochloride] | 124 | 200 | 1430 | – | –
2 | Cc1noc(=O)n1CCCC[C@H](NC(=O)OC(C)(C)C)C(=O)O [Example 1, αS-[[(1,1-dimethylethoxy)carbonyl]amino]-4,5-dihydro-3-methyl-5-oxo-1,2,4-oxadiazole-4-hexanoic acid] | > 1000 | > 1000 | > 1000 | – | –
3 | Cc1noc(=O)n1CCCCC(N)C(=O)O (centres unmarked) [Example 2, αS-amino-4,5-dihydro-3-methyl-5-oxo-1,2,4-oxadiazole-4-hexanoic acid, monohydrochloride] | – | – | – | 39 | 42
